We go through eight compounds from patent US11584762B1, “Near-infrared fluorescent indicators for lysosome and application thereof” (DALIAN UNIVERSITY OF TECHNOLOGY, priority 2022, dated 2023).

Data set [1] is described as follows: Photophysical properties in acetonitrile (absorption, emission, extinction coefficient, quantum yield). The data set is classed as physicochemical. As to the method:
The photophysical properties of compounds D1, D2, D25 and D26 were investigated. Compounds D1, D2, D25 and D26 were dissolved in DMSO to obtain a 1 mM stock solution. The stock solution was further diluted with acetonitrile to obtain a 1 μM testing solution, of which 1 μL trifluoroacetic acid (0.1% by volume) was added. The absorption spectrum, emission spectrum, quantum yield and molar extinction coefficient of these testing solutions were measured. The absorption spectrum was recorded on Agilent 8453 UV-Vis-Spectrophotometer, and the fluorescent spectrum was recorded on an Agilent fluorescence spectrometer. The maximum absorption spectrum (λab), the maximum emission spectrum (λem), the molar extinction coefficient (ε), and the fluorescence quantum yield (Φ^1) of compounds D1, D2, D25 and D26 were shown in Table 1.
(§1) The photophysical properties of compounds D6, D15, D20, D22, D46 and D51 are provided in Table 2, following a similar testing method as example 14 and example 15. […] It can be seen that such property is in favor of confocal imaging of lysosomes without PBS washing.

A short description of data set [2]: Emission in 2 mM CTAB (pH 3) or H2O (pH 7). The class given is physicochemical. To be noted: for Fluorescence emission in 2 mM CTAB at pH 3 / Fluorescence emission in water at pH 7: Table 2; for Emission in 2 mM CTAB at pH 3 / Fluorescence in water at pH 7: FIG. 1, 1 μM; for Emission in 2 mM CTAB at pH 3: pH 3, lysosome-like microenvironment; for Fluorescence in water at pH 7: H2O. On the procedure: The properties of compounds D1, D2, D25 and D26 were investigated. Compounds D1, D2, D25 and D26 were dissolved in DMSO to obtain a 1 mM stock solution. The stock solution was further diluted with 2 mM CTAB (pH 3) or H2O (pH 7) to obtain a 1 μM testing solution. The absorption spectrum and emission spectrum of the testing solution were measured. The evaluated method of photophysical properties was the same as example 13.
CTAB (Hexadecyl trimethyl ammonium bromide) is a cationic surfactant with a critical micelle concentration of 0.9 mM. CTBA exists in the form of micelles in a 2 mM solution of CTAB, which not only helps dissolve dye molecules but also simulates the acidic microenvironment of lysosomes. […] It is preliminarily determined that such property is in favor of confocal imaging of lysosomes without PBS washing.
as §1

For data set [3], the system named is lysosomes of RAW 264.7 cells. As to the kind of experiment: Confocal imaging of live cell lysosomes co-stained with DND-26. The class given is cell-based. To be noted: co-stain 1 μM DND-26, PBS washed. As to the method: The fluorescent imaging of compounds D1, D6, D22 and D25. After incubating for 24 hours in a cell incubator with 5% CO2 at 37° C., RAW 264.7 cells were incubated with 1 μM D1 or 1 μM D6 for 5 min, or incubated with 1 μM D22 or 1 μM D25 for 60 min, then incubated with 1 μM DND-26 which is green lysosome probe for 5 min, washed three times with PBS, then imaged using a confocal microscope.
The fluorescence image of compounds D15, D20, D46 and D51. After incubating for 24 hours in a cell incubator with 5% CO2 at 37° C., RAW 264.7 cells were incubated with 1 μM D15 or 1 μM D20 for 5 min, or incubated with 1 μM D46 or 1 μM D51 for 60 min, then incubated with 1 μM DND-26 for 5 min, washed three times with PBS, and then imaged using a confocal microscope.

Data set [4] has as its system lysosomes of RAW 264.7 cells. As to the kind of experiment: Confocal imaging of live cell lysosomes without washing. The class given is cell-based. To be noted: 100 nM for 60 min, no washing. As to the method:
The fluorescence image of compound D25. After incubating for 24 hours in a cell incubator with 5% CO2 at 37° C., RAW 264.7 cells were incubated with 100 nM D25 for 60 min and then imaged using a confocal microscope.

Data set [5] concerns lysosomes of RAW 264.7 cells. As to the kind of experiment: Confocal imaging of lysosomes after chloroquine stimulation. To be noted: 1 μM, co-staining D25 and DND-26, 20 µM chloroquine, within 5 min. The class given is cell-based. On the procedure:
The fluorescence imaging of compound D25. After incubating for 24 hours in a cell incubator with 5% CO2 at 37° C., RAW 264.7 cells were incubated with 1 μM D25 for 60 min, then incubated with 1 μM DND-26 for 5 min, washed three times with PBS, and then imaged using a confocal microscope after adding 20 µM chloroquine. Chloroquine can cause protons to escape from lysosomes, so it can be used to raise the pH of the lysosomes.

Data set [6] can be described thus: Confocal imaging of stained vesicles at pH 4.0 and pH 7.4. The conditions noted are these: 60 min. As to the method:
We further investigate the targeting feature by imaging vesicles stained with D25 at pH 4.0 and pH 7.4.
The “droplet transfer” method was used to prepare vesicles composed of PC/Chol molar ratios of 7:3, following six steps as below: 1) Prepare 200 mM glucose aqueous solution and sucrose aqueous solution respectively. 2) Hydrophobic phase (0.3 mM PC in decane+0.3 mM CL in decane for PC/CL). 3) The hydrophobic phase was prepared by adding PC (0.3 mM) and possibly other lipids (SM and/or Chol) in decane. 4) Pipette the aqueous phase consisting of 20 μL of sucrose solution and the hydrophobic phase consisting of 600 μL PC/CL into a 1.5 ml centrifuge tube and shake them well. 5) Centrifuge the tube, then remove the mineral oil and wash the GUVs to remove excess solutes. 6) Suspend 30 μL of the pellet in 20 μL of 200 mM glucose solution. 7) Pipette 20 μL onto a glass slide and observe with a confocal microscope and fluorescence lifetime microscope.
Method for vesicles imaging, 30 μL of the vesicles was diluted with 20 μL of 200 mM glucose solution, then stained with D25 in pH 4 PBS (or in pH 7.4 PBS) for 60 min and imaged with a confocal microscope.

The subject of data set [7] is lysosomal membrane of RAW 264.7 cells. As to the kind of experiment: STED-based super-resolution imaging. The data set is classed as cell-based. The conditions noted are these: 250 nM for 60 min. On the procedure: We used D25 as a representative to evaluate its ability to perform STED-based super-resolution imaging. After incubating for 24 hours in a cell incubator with 5% CO2 at 37° C., RAW 264.7 cells were stained with 250 nM D25 for 60 min and imaged using STED based microscope after replacing the staining solution with fresh MEM.

The mark [8] stands for this setting: Table 1, acetonitrile, 1 μM, trifluoroacetic acid 0.1% by volume.

Turning to `CCOC(=O)CCC1=C2C(C)=CC(/C=C/c3ccc4c(c3)c3ccccc3n4Cc3cn(CCCN(C)CCN(C)C)nn3)=[N+]2[B-](F)(F)n2c(/C=C/c3ccc4c(c3)c3ccccc3n4Cc3cn(CCCN(C)CCN(C)C)nn3)cc(C)c21` [D46], in data set [1] (Table 2, in acetonitrile), the “Φ^1 (fluorescence quantum yield)” value was 0.89, the “ε (molar extinction coefficient)” value worked out at 11.0 M^−1 · cm^−1 × 10^4, the “λab (maximum absorption)” value is 659 nm and the “λem (maximum emission)” value is 675 nm. In addition, in data set [2], the “Fluorescence emission in 2 mM CTAB at pH 3” value is given as “Stable” and the “Fluorescence emission in water at pH 7” value is reported as “No”. Besides, the “Lysosome targeting in confocal images” value in data set [3] (1 μM for 60 min) is “can specifically target lysosomes”.

For `CC1=C(Cl)C(C)=[N+]2C1=C(c1ccccc1)c1c(C)c(Cl)c(C=Cc3ccc4c(c3)c3ccccc3n4Cc3cn(CCN(C)CCN(C)C)nn3)n1[B-]2(F)F` [D2], in data set [1] (Table 1, acetonitrile), the “Φ^1 (fluorescence quantum yield)” value came to 0.63 and the “ε (molar extinction coefficient)” value was found to be 10.4 M^−1 · cm^−1 × 10^4. Also, in data set [1] (setting [8]), the “λab (maximum absorption)” value is 604 nm and the “λem (maximum emission)” value turned out to be 650 nm. Besides, in data set [2], the “Emission in 2 mM CTAB at pH 3” value is given as “stable emission” and the “Fluorescence in water at pH 7” value is recorded as “almost no fluorescence”.

As to `CC1=C(Cl)C(C)=[N+]2C1=C(c1ccc(C)cc1)c1c(C)c(Cl)c(C=Cc3ccc4c(c3)c3ccccc3n4Cc3cn(CCN4CCNCC4)nn3)n1[B-]2(F)F` [D6], in data set [1] (Table 2, in acetonitrile), the “Φ^1 (fluorescence quantum yield)” value worked out at 0.73, the “ε (molar extinction coefficient)” value stood at 8.1 M^−1 · cm^−1 × 10^4, the “λab (maximum absorption)” value was 590 nm and the “λem (maximum emission)” value stood at 615 nm. Also, in data set [2], the “Fluorescence emission in 2 mM CTAB at pH 3” value is on record as “Stable” and the “Fluorescence emission in water at pH 7” value is “No”. In data set [3] (1 μM for 5 min), the “Lysosome targeting in confocal images” value is reported as “can specifically target lysosomes”.

`CCOC(=O)CCC1=C2C(C)=CC(C)=[N+]2[B-](F)(F)n2c(C=Cc3ccc4c(c3)c3ccccc3n4Cc3cn(CCCN(C)CCN(C)C)nn3)cc(C)c21` [D22]: in data set [1] (Table 2, in acetonitrile), the “Φ^1 (fluorescence quantum yield)” value stood at 0.81, the “ε (molar extinction coefficient)” value is given as 10.8 M^−1 · cm^−1 × 10^4, the “λab (maximum absorption)” value was determined as 611 nm and the “λem (maximum emission)” value worked out at 661 nm. In addition, in data set [2], the “Fluorescence emission in 2 mM CTAB at pH 3” value is reported as “Stable” and the “Fluorescence emission in water at pH 7” value is given as “No”. Moreover, in data set [3] (1 μM for 60 min), the “Lysosome targeting in confocal images” value is “can specifically target lysosomes”.

Consider `CC1=CC(C=Cc2ccc3c(c2)c2ccccc2n3Cc2cn(CCN(C)CCN(C)C)nn2)=[N+]2C1=C(c1ccccc1)c1c(C)cc(C=Cc3ccc4c(c3)c3ccccc3n4Cc3cn(CCN(C)CCN(C)C)nn3)n1[B-]2(F)F` [D25], for which, in data set [1] (Table 1, acetonitrile), the “Φ^1 (fluorescence quantum yield)” value is 0.94 and the “ε (molar extinction coefficient)” value stood at 9.2 M^−1 · cm^−1 × 10^4. For the same compound, in data set [1] (setting [8]), the “λab (maximum absorption)” value worked out at 664 nm and the “λem (maximum emission)” value is on record as 684 nm. Also, in data set [2], the “Emission in 2 mM CTAB at pH 3” value was “stable emission” and the “Fluorescence in water at pH 7” value is “almost no fluorescence”. Besides, the “Lysosome targeting in confocal images” value in data set [3] (1 μM for 60 min) is listed as “can specifically target lysosomes”. Also, the “Lysosome imaging without washing” value in data set [4] is “can be used for lysosome images without washing”. The “Change of fluorescence intensity after adding chloroquine” value in data set [5] was “only changed slightly”. Also, in data set [6] (pH 4 PBS), the “Fluorescence of stained vesicles at pH 4” value is “intense fluorescence”. Also, the “Fluorescence of stained vesicles at pH 7.4” value in data set [6] (pH 7.4 PBS) is “weak fluorescence”. The “Localization in super-resolution image” value in data set [7] is “localized in the lysosomal membrane”.

`CC1=CC(C)=[N+]2C1=C(c1ccccc1)c1c(C)cc(C=Cc3ccc4c(c3)c3ccccc3n4Cc3cn(CCN(C)CCN(C)C)nn3)n1[B-]2(F)F` [D1]: in data set [1] (Table 1, acetonitrile), the “Φ^1 (fluorescence quantum yield)” value is given as 0.83 and the “ε (molar extinction coefficient)” value came to 7.5 M^−1 · cm^−1 × 10^4. In addition, in data set [1] (setting [8]), the “λab (maximum absorption)” value came out at 581 nm and the “λem (maximum emission)” value is given as 603 nm. Besides, in data set [2], the “Emission in 2 mM CTAB at pH 3” value is recorded as “stable emission” and the “Fluorescence in water at pH 7” value was “almost no fluorescence”. Further, in data set [3] (1 μM for 5 min), the “Lysosome targeting in confocal images” value is on record as “can specifically target lysosomes”.

For the compound `COc1ccc(C2=C3C(C)=C(Cl)C(C=Cc4ccc5c(c4)c4ccccc4n5Cc4cn(CCN5CCNCC5)nn4)=[N+]3[B-](F)(F)n3c(C=Cc4ccc5c(c4)c4ccccc4n5Cc4cn(CCN5CCNCC5)nn4)c(Cl)c(C)c32)cc1` [D51], in data set [1] (Table 2, in acetonitrile), the “Φ^1 (fluorescence quantum yield)” value came to 0.79, the “ε (molar extinction coefficient)” value was 11.1 M^−1 · cm^−1 × 10^4, the “λab (maximum absorption)” value is listed as 689 nm and the “λem (maximum emission)” value is recorded as 728 nm. In data set [2], the “Fluorescence emission in 2 mM CTAB at pH 3” value was “Stable” and the “Fluorescence emission in water at pH 7” value is “No”. For the same compound, in data set [3] (1 μM for 60 min), the “Lysosome targeting in confocal images” value is recorded as “can specifically target lysosomes”.

Turning to `CC1=C(Cl)C(C=Cc2ccc3c(c2)c2ccccc2n3Cc2cn(CCN(C)CCN(C)C)nn2)=[N+]2C1=C(c1ccccc1)c1c(C)c(Cl)c(C=Cc3ccc4c(c3)c3ccccc3n4Cc3cn(CCN(C)CCN(C)C)nn3)n1[B-]2(F)F` [D26], in data set [1] (Table 1, acetonitrile), the “Φ^1 (fluorescence quantum yield)” value was 0.72 and the “ε (molar extinction coefficient)” value worked out at 11.3 M^−1 · cm^−1 × 10^4. In addition, in data set [1] (setting [8]), the “λab (maximum absorption)” value was found to be 692 nm and the “λem (maximum emission)” value was 732 nm. In data set [2], the “Emission in 2 mM CTAB at pH 3” value is given as “stable emission” and the “Fluorescence in water at pH 7” value is “almost no fluorescence”.
